The values that follow come from US20260308184A1, “SUBSTITUTED PYRIMIDINEDIONE COMPOUNDS, COMPOSITIONS, AND USES THEREOF” (LAKEWOOD AMEDEX, INC., priority 2023, published 2026).

In brackets after ≈: the same amount, converted by molar mass.

What all share (experiment): Minimum Inhibitory Concentration, broth microdilution
What all share (format): cell-based
Conditions in all cases: pH 4-5, Mueller Hinton Broth, 18 to 24 hours
For orientation: In broth dilution the organism is exposed to a series of concentrations in liquid medium.

Assay [1] concerns Escherichia coli (6260). On the procedure: (§1) MIC testing is conducted using the broth (Mueller Hinton Broth) microdilution procedures relevant to each organism group as established by the Clinical and Laboratory Standards Institute (CLSI; 3-7). MIC plates are prepared in accordance with CLSI (3-7). To prepare the test plates, automated liquid handlers are used to conduct serial dilutions and liquid transfers. Automated liquid handlers utilized in this study include the Multidrop 384 (Labsystems, Helsinki, Finland) and the Biomek 2000 (Beckman Coulter, Fullerton CA). The solution is diluted to desired pH using 1 M Citric Acid or 1 M NaOH buffer. A standardized inoculum of each test organism is prepared per CLSI methods (3, 5-7) to equal a 0.5 McFarland standard in the appropriate media followed by an additional 1:20 dilution (1:10 for anaerobes).
(§2) The plates are then inoculated with 10 μL of the diluted 0.5 McFarland suspension using the Biomek 2000 from low to high drug concentration, resulting in a final concentration of approximately 5×10^5 CFU/mL per well. An un-inoculated plate is incubated for the purpose of assessing solubility of the drug in the test media. The plates are stacked 3 to 4 high, covered with a sterile lid on the top plate, and incubated for 18 to 24 hours according to CLSI. The MIC is recorded as the lowest concentration of respective compound that inhibited visible growth of the organism.

Assay [2] has as its system Pseudomonas aeruginosa (6234). The protocol:
as §1, §2

For assay [3], the system named is Escherichia coli (0102). On the procedure: as §1, §2
The test system of assay [4] is Pseudomonas aeruginosa (6160). The protocol: as §1, §2
Assay [5] has as its system Pseudomonas aeruginosa (0103). On the procedure: as §1, §2
For assay [6], the system named is Escherichia coli (6098). The protocol:
as §1, §2

Regarding `Cc1cn([C@H]2C[C@H](O)[C@@H](COP(=O)(O)OCCCCO)O2)c(=O)[nH]c1=O` [R-9], the MIC in assay [1] is 100 mg/mL (≈ 254 mM); in assay [2] it was 50 mg/mL (≈ 127 mM); in assay [3], 100 mg/mL (≈ 254 mM); in assay [4] it was 100 mg/mL (≈ 254 mM); in assay [5], 100 mg/mL (≈ 254 mM); in assay [6], 100 mg/mL (≈ 254 mM).

What is called MIC is the smallest concentration in the dilution series that meets the test's criterion for growth inhibition.
